Molecules are shown by their SMILES. Active and inactive are the calls of the source. The calls are words filed in the database; no cut-off is given here.

In ChEMBL document CHEMBL1146527, “The guineamides, novel cyclic depsipeptides from a Papua New Guinea collection of the marine cyanobacterium Lyngbya majuscula” (J Nat Prod, 2003) one finds Activity and IC50 data, which are given here for 3 compounds.

One assay concerns N2a. Kind of assay: Cytotoxicity against mouse Neuro2a cells at 10 ug/mL. It counts as functional, cell-based.
Assay [1] is described as follows: Cytotoxicity against mouse Neuro2a cells. The format is functional, cell-based. The settings on record: N2a.

Turning to `CC[C@H]1NC(=O)c2csc(n2)[C@H](C)NC(=O)[C@H](Cc2ccccc2)N(C)C(=O)[C@H](C(C)C)N(C)C(=O)[C@H](C)OC(=O)[C@H]1C`, in the assay on N2a, the outcome was inactive.
Broadly, the IC50 is the concentration that gives 50% inhibition. Higher therefore signals weaker potency in that assay. In the case of `CC1NC(=O)c2csc(n2)[C@H](C)NC(=O)[C@H](Cc2ccccc2)N(C)C(=O)[C@H](C(C)C)N(C)C(=O)[C@H](C(C)C)OC(=O)C1C` (stereo partly drawn) [GUINEAMIDE B], in assay [1], the IC50 worked out at 15 µM.
Turning to `C#CCCCC1NC(=O)[C@H](C)N(C)C(=O)[C@H](C(C)C)NC(=O)[C@H](Cc2ccc(OC)cc2)N(C)C(=O)C(C(C)CC)OC(=O)C1C` (stereo partly drawn) [GUINEAMIDE C], the midpoint of inhibition in assay [1], the IC50, lay at 16 µM.
